# Assay results reported in paper PMC3397457, “Preclinical Evaluation of Anticancer Efficacy and Pharmacological Properties of FBA-TPQ, a Novel Synthetic Makaluvamine Analog” (Marine Drugs, 2012).
# What was measured:
# Panc-1 cells [1] = assay: MTT cell survival assay, Panc-1; format: cell-based; conditions: Homo sapiens, Panc-1, 72 h, read-out: Cytotoxicity IC50
# Method: (§1) We evaluated the effects of FBA-TPQ on the survival of several human pancreatic cancer cell lines, including HPAC (p53^+/+), Panc-1(p53^+/−), and Mia PaCa-2(p53^+/−), as well as normal IRM90 fetal fibroblast cells (Figure 2a). Cells were exposed to various concentrations of the test compound (0–10 µM) for 72 h, and cell survival rates were determined by the MTT assay, using a procedure reported previously. FBA-TPQ exerted potent effects against the test cancer cell lines, leading to significant decreases in cell viability.
# (§2) Human pancreatic cancer cells were obtained from the American Type Culture Collection (Rockville, MD). All cell culture media contained 10% FBS and 1% penicillin/streptomycin. […]
# (§3) The effect of the test compound on human pancreatic cancer cell viability, expressed as the percentage of cell survival, was determined using the MTT (3-(4,5-dimethylthiazol-2-yl)-2,5-diphenyl tetrazolium bromide) assay. […] The absorbance at 570 nm was recorded using an OPTImax microplate reader (Molecular Devices; Sunnyvale, CA, USA). The cell survival percentages were calculated by dividing the mean OD of compound-containing wells by that of DMSO-containing control wells. […]
# [2] = MTT cell survival assay, IMR-90 normal fibroblasts; format: cell-based; conditions: human, IMR-90 normal fetal fibroblast cells, read-out: Cytotoxicity IC50
# Method: as §1, §2, §3
# [3] = test system: human pancreatic cancer cell lines (HPAC, Panc-1, Mia PaCa-2); assay: MTT cell survival assay, pancreatic cancer cell lines taken together; format: cell-based; conditions: 72 h
# Method: as §1
# The effect of the test compound on human pancreatic cancer cell viability, expressed as the percentage of cell survival, was determined using the MTT (3-(4,5-dimethylthiazol-2-yl)-2,5-diphenyl tetrazolium bromide) assay. The MTT assay is colorimetric assay for measuring the activity of enzymes that reduce MTT to formazan dyes, giving a purple color. Cells were grown in 96-well plates at 4–5 × 10^3 cells per well and exposed to different concentrations of the test compound (0, 0.1, 0.25, 0.5, 0.75, 1, 5 and 10 µM). […] The absorbance at 570 nm was recorded using an OPTImax microplate reader (Molecular Devices; Sunnyvale, CA, USA). The cell survival percentages were calculated by dividing the mean OD of compound-containing wells by that of DMSO-containing control wells. […]
# Panc-1 cells [4] = assay: Cell cycle distribution by flow cytometry, Panc-1; format: cell-based, human; conditions: Panc-1, 1 µM
# Method: (§4) The effects of FBA-TPQ on cell cycle distribution were analyzed using the previously reported methods; its effects appeared to be cell-line-dependent (Figure 2c). […] The differences in the responses of the different cell lines may be related to their expression of p53.
# (§5) To determine the effect of FBA-TPQ on the cell cycle, cells (2–3 × 10^5) were exposed to the test compounds (0, 0.1, 0.5 or 1 µM) and incubated for 24 h prior to analysis. Cells were trypsinized, washed with PBS, and fixed in 1.5 mL of 95% ethanol and 0.5 mL of 0.9% saline solution at 4 °C overnight, followed by incubation with RNAse and staining with propidium iodide (Sigma). The DNA content was determined by flow cytometry. The cell cycle distribution was evaluated by comparing with that of the control cells.
# Mia PaCa-2 cells = assay: Cell cycle distribution by flow cytometry, Mia PaCa-2; format: cell-based, human; conditions: Mia PaCa-2, 1 µM
# Method: as §4, §5
# [5] = Plasma protein binding by micro-ultrafiltration; format: in vitro ADME; conditions: pooled mouse plasma, 37 °C 1 h, read-out: bound to plasma proteins (converted)
# Method: To determine the extent to which FBA-TPQ is bound by plasma proteins, pooled plasma samples were examined for their capacity to bind the compound at concentrations of 0.5 μM and 5 μM. FBA-TPQ was considerably bound to proteins in mouse plasma, with 72.32% ± 2.53%; and 77.78% ± 1.17% of the compound being bound to plasma proteins at concentrations of 0.5 μM and 5.0 μM, respectively. Extensive binding of a candidate compound to plasma proteins can impair its biodistribution and may therefore impact its therapeutic efficacy. However, compounds that are highly bound to proteins display longer half-lives, durations of action, and higher volumes of distribution.
# The extent of binding to mouse plasma proteins by FBA-TPQ was determined using a micro-ultrafiltration system as previously described. FBA-TPQ was dissolved in methanol and added to pooled mouse plasma to yield final concentrations of 0.5 µM and 5.0 µM. Control solutions were prepared in methanol to account for non-specific binding of FBA-TPQ to the filter membranes. Duplicate preparations of each concentration were incubated at 37 °C for 1 h, before being placed into the sample reservoirs of Amicon Centrifree® ultrafiltration tubes (30 kDa exclusion; Millipore).
# [6] = test system: murine hepatic S9 fractions containing Phase I and II metabolic enzymes; assay: S9 metabolism; format: in vitro ADME; conditions: mouse hepatic S9, 10 μM, 60 min incubation
# Method: As a preliminary study of the metabolism of FBA-TPQ, the compound was incubated with S9 fractions containing Phase I and Phase II metabolic enzymes and their co-factors for 15, 30, 45, or 60 min. […] No specific peaks that seemed to correspond to unique metabolites were identified using the current RRLC method.
# A preliminary study of the metabolism of FBA-TPQ was done using murine hepatic S9 fractions containing Phase I and II metabolic enzymes. […] Duplicate aliquots of the mixtures were taken at 0, 15, 30, 45, and 60 min, and the samples were processed and analyzed. The percent of FBA-TPQ that was metabolized by Phase I and Phase II enzymes was calculated by comparing the initial concentration of the iminoquinone to the measured concentration following incubation.
smiles,measurement,setting,value
"O=C1C(NCc2ccc(F)cc2)=CC2=NCCc3c[nH]c1c32 [FBA-TPQ, 7-(4-fluorobenzylamino)-1,3,4,8-tetrahydropyrrolo[4,3,2-de]quinolin-8(1H)-one]",IC50,Panc-1 cells [1],110 ± 10 nM
same,IC50 at 72 h,[2],5820 ± 460 nM
same,"differences in IC50, normal IMR90 fibroblasts vs pancreatic cancer cells",[3],10–50 fold
same,cell cycle arrest,Panc-1 cells [4],arrest in the S phase
same,cell cycle arrest,Mia PaCa-2 cells,arrest in the S phase
same,"fraction unbound at 1 h, 0.5 µM",[5]; 0.5 μM,0.277
same,"fraction unbound at 1 h, 5 µM",[5]; 5.0 μM,0.222
same,compound metabolized by Phase I components,[6],approximately 14.3%
same,compound metabolized by Phase II components,[6],~1.8%
